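Growth conditions: 96-well plates. Treatment: test compound, 48 hours, 5 concentrations. Analysis: linear interpolation between bracketing concentrations; unreached endpoints set to highest concentration. TGI: total growth inhibition.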
Experiments:
Test in all cases: inhibition of tumour cell growth, NCI panel, 48 h
HOP-92 NSCLC = tested on: HOP-92 NSCLC
UACC-62 melanoma = tested on: UACC-62 melanoma
MDA-MB-435 = tested on: MDA-MB-435
SK-MEL-28 melanoma = tested on: SK-MEL-28 melanoma
SK-MEL-2 melanoma = tested on: SK-MEL-2 melanoma
MCF7 breast = tested on: MCF7 breast
DMS 114 small cell lung = tested on: DMS 114 small cell lung
LXFL 529 NSCLC = tested on: LXFL 529 NSCLC
M19-MEL melanoma = tested on: M19-MEL melanoma
U251 CNS = tested on: U251 CNS
MDA-N = tested on: MDA-N
SNB-78 CNS = tested on: SNB-78 CNS
SR leukemia = tested on: SR leukemia
T-47D breast = tested on: T-47D breast
HOP-18 NSCLC = tested on: HOP-18 NSCLC
KM20L2 colon = tested on: KM20L2 colon
SN12C renal = tested on: SN12C renal
COLO 205 colon = tested on: COLO 205 colon
CCRF-CEM leukemia = tested on: CCRF-CEM leukemia
NCI-H522 lung = tested on: NCI-H522 lung
A549 NSCLC = tested on: A549 NSCLC
HCT-15 colon = tested on: HCT-15 colon
KM12 colon = tested on: KM12 colon
SW-620 colon = tested on: SW-620 colon
ACHN renal = tested on: ACHN renal
MDA-MB-231 breast = tested on: MDA-MB-231 breast
K-562 leukemia = tested on: K-562 leukemia
PC-3 prostate = tested on: PC-3 prostate
HOP-62 NSCLC = tested on: HOP-62 NSCLC
BT-549 breast = tested on: BT-549 breast
OVCAR-4 ovarian = tested on: OVCAR-4 ovarian
TK-10 renal = tested on: TK-10 renal
NCI-H226 lung = tested on: NCI-H226 lung
SNB-75 CNS = tested on: SNB-75 CNS
OVCAR-3 ovarian = tested on: OVCAR-3 ovarian
IGROV1 ovarian = tested on: IGROV1 ovarian
DMS 273 small cell lung = tested on: DMS 273 small cell lung
DU-145 prostate = tested on: DU-145 prostate
SF-295 CNS = tested on: SF-295 CNS
DLD-1 colon = tested on: DLD-1 colon
M14 melanoma = tested on: M14 melanoma
HL-60(TB) leukemia = tested on: HL-60(TB) leukemia
SF-539 CNS = tested on: SF-539 CNS
MOLT-4 leukemia = tested on: MOLT-4 leukemia
786-0 renal = tested on: 786-0 renal
NCI-H23 lung = tested on: NCI-H23 lung
OVCAR-5 ovarian = tested on: OVCAR-5 ovarian
UO-31 renal = tested on: UO-31 renal
RPMI-8226 leukemia = tested on: RPMI-8226 leukemia
MALME-3M melanoma = tested on: MALME-3M melanoma
LOX IMVI melanoma = tested on: LOX IMVI melanoma
HS 578T breast = tested on: HS 578T breast
CAKI-1 renal = tested on: CAKI-1 renal
NCI-H460 lung = tested on: NCI-H460 lung
NCI/ADR-RES ovarian = tested on: NCI/ADR-RES ovarian
UACC-257 melanoma = tested on: UACC-257 melanoma
OVCAR-8 ovarian = tested on: OVCAR-8 ovarian
SK-OV-3 ovarian = tested on: SK-OV-3 ovarian
HCC-2998 colon = tested on: HCC-2998 colon
A498 renal = tested on: A498 renal
XF 498 CNS = tested on: XF 498 CNS
HCT-116 colon = tested on: HCT-116 colon
SNB-19 CNS = tested on: SNB-19 CNS
EKVX NSCLC = tested on: EKVX NSCLC
RXF 393 renal = tested on: RXF 393 renal
SK-MEL-5 melanoma = tested on: SK-MEL-5 melanoma
HT29 colon = tested on: HT29 colon
SF-268 CNS = tested on: SF-268 CNS

CC(=O)OC1CC(n2cc(F)c(=O)[nH]c2=O)OC1CO (centres undefined)
TGI (HOP-92 NSCLC): > 69 µM | TGI (UACC-62 melanoma): > 22.4 µM | TGI (MDA-MB-435): > 100 µM | TGI (SK-MEL-28 melanoma): > 100 µM | TGI (SK-MEL-2 melanoma): > 100 µM | TGI (MCF7 breast): > 28.3 µM | TGI (DMS 114 small cell lung): > 100 µM | TGI (LXFL 529 NSCLC): 16.4 µM | TGI (M19-MEL melanoma): > 100 µM | TGI (U251 CNS): > 100 µM | TGI (MDA-N): > 100 µM | TGI (SNB-78 CNS): > 100 µM | TGI (SR leukemia): > 100 µM | TGI (T-47D breast): > 100 µM | TGI (HOP-18 NSCLC): > 100 µM | TGI (KM20L2 colon): > 100 µM | TGI (SN12C renal): > 100 µM | TGI (COLO 205 colon): > 100 µM | TGI (CCRF-CEM leukemia): > 100 µM | TGI (NCI-H522 lung): 23.9 µM | TGI (A549 NSCLC): > 90.8 µM | TGI (HCT-15 colon): > 100 µM | TGI (KM12 colon): > 100 µM | TGI (SW-620 colon): > 86.8 µM | TGI (ACHN renal): > 77.8 µM | TGI (MDA-MB-231 breast): > 100 µM | TGI (K-562 leukemia): > 100 µM | TGI (PC-3 prostate): > 100 µM | TGI (HOP-62 NSCLC): 10.1 µM | TGI (BT-549 breast): > 100 µM | TGI (OVCAR-4 ovarian): > 100 µM | TGI (TK-10 renal): > 100 µM | TGI (NCI-H226 lung): > 100 µM | TGI (SNB-75 CNS): > 100 µM | TGI (OVCAR-3 ovarian): > 100 µM | TGI (IGROV1 ovarian): > 100 µM | TGI (DMS 273 small cell lung): > 47 µM | TGI (DU-145 prostate): > 100 µM | TGI (SF-295 CNS): > 89 µM | TGI (DLD-1 colon): > 100 µM | TGI (M14 melanoma): 45.6 µM | TGI (HL-60(TB) leukemia): > 100 µM | TGI (SF-539 CNS): 5.02 µM | TGI (MOLT-4 leukemia): > 100 µM | TGI (786-0 renal): > 62.5 µM | TGI (NCI-H23 lung): 77.1 µM | TGI (OVCAR-5 ovarian): > 100 µM | TGI (UO-31 renal): > 92.6 µM | TGI (RPMI-8226 leukemia): > 100 µM | TGI (MALME-3M melanoma): > 100 µM | TGI (LOX IMVI melanoma): > 63.8 µM | TGI (HS 578T breast): > 100 µM | TGI (CAKI-1 renal): > 100 µM | TGI (NCI-H460 lung): > 100 µM | TGI (NCI/ADR-RES ovarian): > 100 µM | TGI (UACC-257 melanoma): > 100 µM | TGI (OVCAR-8 ovarian): > 100 µM | TGI (SK-OV-3 ovarian): > 100 µM | TGI (HCC-2998 colon): 8.33 µM | TGI (A498 renal): 15.5 µM | TGI (XF 498 CNS): 83.8 µM | TGI (HCT-116 colon): > 100 µM | TGI (SNB-19 CNS): > 100 µM | TGI (EKVX NSCLC): > 100 µM | TGI (RXF 393 renal): > 100 µM | TGI (SK-MEL-5 melanoma): 16.2 µM | TGI (HT29 colon): > 100 µM | TGI (SF-268 CNS): > 73.8 µM

O=[N+]([O-])c1ccc(C2=NOC(c3ccccc3F)N2C23CC4CC(CC(C4)C2)C3)cc1 (centres undefined)
TGI (HOP-92 NSCLC): > 100 µM | TGI (UACC-62 melanoma): > 100 µM | TGI (MDA-MB-435): > 100 µM | TGI (SK-MEL-28 melanoma): > 100 µM | TGI (SK-MEL-2 melanoma): > 100 µM | TGI (MCF7 breast): > 100 µM | TGI (U251 CNS): > 100 µM | TGI (MDA-N): > 100 µM | TGI (SR leukemia): > 100 µM | TGI (T-47D breast): > 100 µM | TGI (SN12C renal): > 100 µM | TGI (COLO 205 colon): > 100 µM | TGI (CCRF-CEM leukemia): > 100 µM | TGI (NCI-H522 lung): > 100 µM | TGI (A549 NSCLC): > 100 µM | TGI (HCT-15 colon): > 100 µM | TGI (KM12 colon): > 100 µM | TGI (SW-620 colon): > 100 µM | TGI (ACHN renal): > 100 µM | TGI (MDA-MB-231 breast): > 100 µM | TGI (K-562 leukemia): > 100 µM | TGI (PC-3 prostate): > 100 µM | TGI (HOP-62 NSCLC): > 100 µM | TGI (BT-549 breast): > 100 µM | TGI (OVCAR-4 ovarian): > 100 µM | TGI (TK-10 renal): > 100 µM | TGI (NCI-H226 lung): > 100 µM | TGI (SNB-75 CNS): > 100 µM | TGI (OVCAR-3 ovarian): > 100 µM | TGI (IGROV1 ovarian): > 100 µM | TGI (DU-145 prostate): > 100 µM | TGI (SF-295 CNS): > 100 µM | TGI (M14 melanoma): > 100 µM | TGI (HL-60(TB) leukemia): > 100 µM | TGI (SF-539 CNS): > 100 µM | TGI (MOLT-4 leukemia): > 100 µM | TGI (786-0 renal): > 100 µM | TGI (NCI-H23 lung): > 100 µM | TGI (OVCAR-5 ovarian): > 100 µM | TGI (UO-31 renal): > 100 µM | TGI (RPMI-8226 leukemia): > 100 µM | TGI (MALME-3M melanoma): > 100 µM | TGI (LOX IMVI melanoma): > 100 µM | TGI (HS 578T breast): > 100 µM | TGI (CAKI-1 renal): > 100 µM | TGI (NCI-H460 lung): > 100 µM | TGI (NCI/ADR-RES ovarian): > 100 µM | TGI (UACC-257 melanoma): > 100 µM | TGI (OVCAR-8 ovarian): > 100 µM | TGI (SK-OV-3 ovarian): > 100 µM | TGI (HCC-2998 colon): > 100 µM | TGI (A498 renal): > 100 µM | TGI (HCT-116 colon): > 100 µM | TGI (EKVX NSCLC): > 100 µM | TGI (SK-MEL-5 melanoma): > 100 µM | TGI (HT29 colon): > 100 µM | TGI (SF-268 CNS): > 100 µM

O=C(NNC(=S)Nc1ccccc1)c1ccccc1Nc1ccccc1C(=O)NNC(=S)Nc1ccccc1
TGI (HOP-92 NSCLC): 30.5 µM | TGI (UACC-62 melanoma): 26.9 µM | TGI (MDA-MB-435): > 100 µM | TGI (SK-MEL-28 melanoma): > 100 µM | TGI (SK-MEL-2 melanoma): 47.1 µM | TGI (MCF7 breast): 83.8 µM | TGI (U251 CNS): 50.7 µM | TGI (MDA-N): > 100 µM | TGI (SR leukemia): > 100 µM | TGI (T-47D breast): > 100 µM | TGI (SN12C renal): 57.9 µM | TGI (COLO 205 colon): 41.5 µM | TGI (CCRF-CEM leukemia): > 100 µM | TGI (NCI-H522 lung): 46 µM | TGI (A549 NSCLC): > 100 µM | TGI (HCT-15 colon): > 100 µM | TGI (KM12 colon): > 100 µM | TGI (SW-620 colon): > 100 µM | TGI (ACHN renal): > 100 µM | TGI (MDA-MB-231 breast): 61.3 µM | TGI (K-562 leukemia): > 100 µM | TGI (PC-3 prostate): 64.8 µM | TGI (HOP-62 NSCLC): 60.7 µM | TGI (BT-549 breast): 57.7 µM | TGI (OVCAR-4 ovarian): > 100 µM | TGI (TK-10 renal): 68.7 µM | TGI (NCI-H226 lung): 77.9 µM | TGI (SNB-75 CNS): > 100 µM | TGI (OVCAR-3 ovarian): 38.4 µM | TGI (IGROV1 ovarian): 32.3 µM | TGI (DU-145 prostate): > 100 µM | TGI (SF-295 CNS): 57.6 µM | TGI (M14 melanoma): 41.5 µM | TGI (HL-60(TB) leukemia): > 100 µM | TGI (SF-539 CNS): 59.8 µM | TGI (MOLT-4 leukemia): > 100 µM | TGI (786-0 renal): 41.5 µM | TGI (NCI-H23 lung): 41.5 µM | TGI (OVCAR-5 ovarian): 33.6 µM | TGI (UO-31 renal): 44.6 µM | TGI (RPMI-8226 leukemia): > 100 µM | TGI (MALME-3M melanoma): 52.3 µM | TGI (LOX IMVI melanoma): 26 µM | TGI (HS 578T breast): 74.9 µM | TGI (CAKI-1 renal): > 100 µM | TGI (NCI-H460 lung): 49 µM | TGI (NCI/ADR-RES ovarian): > 100 µM | TGI (UACC-257 melanoma): 56.7 µM | TGI (OVCAR-8 ovarian): 52.2 µM | TGI (SK-OV-3 ovarian): 89.8 µM | TGI (HCC-2998 colon): 37.1 µM | TGI (A498 renal): > 100 µM | TGI (HCT-116 colon): 35.5 µM | TGI (SNB-19 CNS): 72.4 µM | TGI (EKVX NSCLC): 85.3 µM | TGI (RXF 393 renal): 45.4 µM | TGI (SK-MEL-5 melanoma): 58.2 µM | TGI (HT29 colon): 76.6 µM | TGI (SF-268 CNS): 60.6 µM
